Data as given in patent US10233186B2, “Inhibitors of activin receptor-like kinase” (BLUEPRINT MEDICINES CORPORATION, priority 2016, dated 2019).

Experiments:
[1] = target: T1, ALK2 R206H (GST-tagged mutant ALK2) (Homo sapiens, UniProt Q04771, R206H); experiment: ALK binding assay (LANTHASCREEN TR-FRET competitive binding, displacement of Kinase Tracer 178); conditions: ALK2 R206H, LANTHASCREEN TR-FRET competitive binding; read-out: Binding Assay (IC50)
T1 construct: purchased Carna Bioscience or ThermoFisher 09-148 or PV6232
T1 sequence (Q04771 21-509 R206H): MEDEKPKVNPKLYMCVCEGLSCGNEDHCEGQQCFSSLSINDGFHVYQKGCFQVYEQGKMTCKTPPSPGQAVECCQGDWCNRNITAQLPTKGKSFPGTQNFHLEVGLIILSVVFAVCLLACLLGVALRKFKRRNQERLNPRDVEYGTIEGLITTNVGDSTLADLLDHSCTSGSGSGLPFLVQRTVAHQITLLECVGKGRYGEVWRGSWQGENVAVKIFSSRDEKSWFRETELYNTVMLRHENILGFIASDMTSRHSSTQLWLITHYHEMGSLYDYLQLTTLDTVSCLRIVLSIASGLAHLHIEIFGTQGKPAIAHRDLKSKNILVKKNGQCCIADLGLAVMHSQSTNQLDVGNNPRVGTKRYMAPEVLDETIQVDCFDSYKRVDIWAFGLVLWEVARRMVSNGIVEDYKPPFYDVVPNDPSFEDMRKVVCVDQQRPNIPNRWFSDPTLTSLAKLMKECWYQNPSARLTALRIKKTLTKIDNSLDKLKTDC

human ALK2 R206H = target: T2, human ALK2 R206H (Homo sapiens, UniProt Q04771, R206H); experiment: Cell-based ALK2-R206H cell activity assay (Smad1-Ser463/Ser465 phosphorylation by AlphaLISA in HEK293-ALK2-R206H cells); conditions: read-out: Cell Line (Cell Assay IC50)
T2 construct: expressed in transfected cells; host or cells: HEK293 (ATCC CRL1573), lentivirus transduction, blasticidin selection
T2 sequence (Q04771 21-509 R206H): T1 sequence (Q04771 21-509 R206H)
In short: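 Stable HEK293 cells expressing C-terminally FLAG-tagged human ALK2 R206H (lentiviral, blasticidin-selected) were treated with compounds in 10-point, 3-fold dilutions from 10 μM or 1 μM top, in duplicate. Smad1 Ser463/Ser465 phosphorylation was read by AlphaLISA.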

| IC50 [1] [µM] | IC50 (human ALK2 R206H) [µM] | Structure (SMILES) |
| --- | --- | --- |
| < 0.01 | < 0.1 | CC(C)N1CC[C@@H](c2ccc(-c3cc4c(N5CCN(C(=O)C6CC6)CC5)ccnn4c3)cc2)C1 [Compound 203] |
| < 0.01 | 0.1 to 0.5 | CC1OCC1OC(=O)N1CCN(c2ccnn3cc(-c4ccc([C@@H]5CCCN(C(C)C)C5)cc4)cc23)CC1 (stereo partly drawn) [Compound 828] |
| < 0.01 | < 0.1 | CCN1CC[C@H](c2ccc(-c3cc4c(N5CCN(C(=O)[C@H]6C[C@H]6F)CC5)ccnn4c3)cc2)C1 [Compound 226] |
| < 0.01 | < 0.1 | CC(C)N1CCC[C@@H](c2ccc(-c3cc4c(N5CCN(C(=O)[C@H]6C[C@H](O)C6)CC5)ccnn4c3)cc2)C1 [Compound 385] |
| < 0.01 | < 0.1 | CC(C)N1CCC(c2ccc(-c3cc4c(N5CCN(C(=O)O[C@H]6CCOC6)CC5)ccnn4c3)cc2)CC1 [Compound 667] |
| < 0.01 | 0.1 to 0.5 | CCN1C[C@@H]2C[C@H]1CN2c1ccc(-c2cc3c(N4CCN(C(=O)C5CC5)CC4)ccnn3c2)cc1 [Compound 242] |
| < 0.01 | < 0.1 | CC(C)N1CCC(c2ccc(-c3cc4c(N5CCN(C(=O)[C@H]6CC[C@H](O)CC6)CC5)ccnn4c3)nc2)CC1 [Compound 432] |
| < 0.01 | 0.1 to 0.5 | CC(C)N1CCC(c2ccc(-c3cc4c(N5CCN(C(=O)C6CCOC6)CC5)ccnn4c3)cc2)CC1 (stereo not drawn) [Compound 812] |
| < 0.01 | < 0.1 | CC(C)N1CCC[C@@H](c2ccc(-c3cc4c(N5CCN(C(=O)OC6COC6)CC5)ccnn4c3)cc2)C1 [Compound 631, (S)-oxetan-3-yl 4-(6-(4-(1-isopropylpiperidin-3-yl)phenyl)pyrrolo[1,2-b]pyridazin-4-yl)piperazine-1-carboxylate] |
| < 0.01 | 0.1 to 0.5 | CC(C)N1CCC(c2ccc(-c3cc4c(N5CCN(C(=O)OC6CCOCC6)CC5)ccnn4c3)cc2)CC1 [Compound 709] |
| < 0.01 | < 0.1 | CCN1CCC(c2ccc(-c3cc4c(N5CCN(C(=O)N6CC(C#N)C6)CC5)ccnn4c3)cc2)C1 (stereo not drawn) [Compound 300, 1-(4-(6-(4-(1-ethylpyrrolidin-3-yl)phenyl)pyrrolo[1,2-b]pyridazin-4-yl)piperazine-1-carbonyl)azetidine-3-carbonitrile] |
| 0.01 to 0.05 | 0.1 to 0.5 | CCN1CCOC(c2ccc(-c3cc4c(N5CCN(C(=O)C6CC6)CC5)ccnn4c3)cc2)C1 (stereo not drawn) [Compound 214, cyclopropyl(4-(6-(4-(4-ethylmorpholin-2-yl)phenyl)pyrrolo[1,2-b]pyridazin-4-yl)piperazin-1-yl)methanone] |
| < 0.01 | 0.1 to 0.5 | CC(C)N1CCC[C@@H](c2ccc(-c3cc4c(N5CCN(C(=O)OC(CO)CO)CC5)ccnn4c3)cc2)C1 [Compound 837] |
| < 0.01 | 0.1 to 0.5 | O=C(C1CCC1)N1CCN(c2ccnn3cc(-c4ccc(N5CCNCC5)cc4)cc23)CC1 [Compound 154] |
| < 0.01 | < 0.1 | CC(C)N1CCCC1c1ccc(-c2cc3c(N4CCN(C(=O)C5CC5)CC4)ccnn3c2)cc1 (stereo not drawn) [Compound 209] |
| < 0.01 | < 0.1 | CCOC(=O)N1CCN(c2ccnn3cc(-c4ccc(C5CN(C(C)C)C5)cc4)cc23)CC1 [Compound 182] |
| < 0.01 | < 0.1 | O=C(OC1COC1)N1CCN(c2ccnn3cc(-c4ccc([C@@H]5CCCNC5)cc4)cc23)CC1 [Compound 774] |
| < 0.01 | < 0.1 | CCNC(=O)N1CCN(c2ccnn3cc(-c4ccc([C@@H]5CCCN(C(C)C)C5)cc4)cc23)CC1 [Compound 276] |
| < 0.01 | < 0.1 | CC(C)N1CCC(c2ccc(-c3cc4c(N5CCN(C(=O)NC6COC6)CC5)ccnn4c3)cc2)CC1 [Compound 627] |

Continued, compound first:

| Structure (SMILES) | IC50 [1] [µM] | IC50 (human ALK2 R206H) [µM] |
| --- | --- | --- |
| N#C[C@H]1C[C@@H]1C(=O)N1CCN(c2ccnn3cc(-c4ccc([C@@]5(F)CCCNC5)cc4)cc23)CC1 [Compound 513] | < 0.01 | < 0.1 |
| CCN1CC2(C1)CN(c1ccc(-c3cc4c(N5CCN(C(=O)[C@@H]6C[C@H]6F)CC5)ccnn4c3)cc1)C2 [Compound 332] | < 0.01 | < 0.1 |
| CCOC(=O)N1CCN(c2ccnn3cc(-c4ccc(C5(OCC)CCN(C(C)C)CC5)cc4)cc23)CC1 [Compound 831] | < 0.01 | < 0.1 |
| O=C(C1CC1)N1CCN(c2ccnn3cc(-c4ccc(N5CCN6CCOCC6C5)cc4)cc23)CC1 (stereo not drawn) [Compound 315] | 0.01 to 0.05 | 0.1 to 0.5 |
| CCN1CCN(CCOc2ccc(-c3cc4c(N5CCN(C(=O)C6CC6)CC5)ccnn4c3)cc2)CC1 [Compound 390, cyclopropyl(4-(6-(4-(2-(4-ethylpiperazin-1-yl)ethoxy)phenyl)pyrrolo[1,2-b]pyridazin-4-yl)piperazin-1-yl)methanone] | 0.01 to 0.05 | 0.1 to 0.5 |
| COC1(c2ccc(-c3cc4c(N5CCN(C(=O)C6CC6)CC5)ccnn4c3)cc2)CCN([C@H](C)COC(F)F)CC1 [Compound 884] | < 0.01 | < 0.1 |
| COC1(c2ccc(-c3cc4c(N5CCN(C(=O)NC(C)C)CC5)ccnn4c3)cc2F)CCCN(C(C)C)C1 (stereo not drawn) [Compound 722] | < 0.01 | < 0.1 |
| CCNC(=O)N1CCN(c2ccnn3cc(-c4ccc([C@@]5(OC)CCCN(C(C)C)C5)cn4)cc23)CC1 [Compound 646] | < 0.01 | < 0.1 |
| O=C(C1CC1)N1CCN(c2ccnn3cc(-c4ccc(N5CCNCC5)nc4)cc23)CC1 [Compound 135] | 0.01 to 0.05 | 0.1 to 0.5 |
| COC1(c2ccc(-c3cc4c(N5CCN(C(=O)NC(C)C)CC5)ccnn4c3)nc2)CCN(C(C)C)CC1 [Compound 688] | < 0.01 | < 0.1 |
| CCNC(=O)N1CCN(c2ccnn3cc(-c4ccc(C5(OC)CCN(C(C)C)CC5)c(F)c4)cc23)CC1 [Compound 697] | < 0.01 | < 0.1 |
| CCN1CC2CN(c3ccnn4cc(-c5ccc(N6CCN(C(C)C)CC6)cc5)cc34)CCN2C1=O (stereo not drawn) [Compound 329] | < 0.01 | 0.1 to 0.5 |
| COC1(c2ccc(-c3cc4c(N5CCN(C(=O)OC6COC6)CC5)ccnn4c3)nc2)CCNC(C)(C)C1 (stereo not drawn) [Compound 833] | < 0.01 | < 0.1 |
| CC(C)NC(=O)N1CCN(c2ccnn3cc(-c4ccc([C@@]5(O)CCN(C(C)C)C5)cn4)cc23)CC1 [Compound 608] | < 0.01 | 0.1 to 0.5 |
| N#CC1CN(C(=O)N2CCN(c3ccnn4cc(-c5ccc(OC6CCCNC6)cc5)cc34)CC2)C1 (stereo not drawn) [Compound 309] | < 0.01 | 0.1 to 0.5 |
| CC(C)N1CCN(c2ccc(-c3cc4c(N5CCN(C(=O)C6CC6)[C@H](C)C5)ccnn4c3)cc2)CC1 [Compound 318] | < 0.01 | 0.1 to 0.5 |
| CCNC(=O)N1CCN(c2ccnn3cc(-c4ccc(C5(OC)CCCN(C(C)C)C5)cc4)cc23)CC1 (stereo not drawn) [Compound 400] | < 0.01 | < 0.1 |
| CCNC(=O)N1CCN(c2ccnn3cc(-c4ccc([C@]5(OC)CCCN(C(C)C)C5)cn4)cc23)CC1 [Compound 645] | < 0.01 | < 0.1 |
| CC(C)N1CC[C@@](O)(c2ccc(-c3cc4c(N5CCN(C(=O)C6CC6)CC5)ccnn4c3)nc2)C1 [Compound 526] | < 0.01 | < 0.1 |
| [2H]C([2H])([2H])C([2H])([2H])N1CCN(c2ccc(-c3cc4c(N5CCN(C(=O)C6CC6)CC5)ccnn4c3)cc2)CC1 [Compound 237] | < 0.01 | < 0.1 |
| CCN1CCN(c2ccc(-c3cc4c(N5CCN(C(=O)[C@H]6C[C@H]6C#N)CC5)ccnn4c3)cc2)CC1 [Compound 301] | < 0.01 | 0.1 to 0.5 |
| CCOC1(c2ccc(-c3cc4c(N5CCN(C(=O)OC6COC6)CC5)ccnn4c3)nc2)CCOCC1 [Compound 821] | < 0.01 | < 0.1 |
| CO[C@]1(c2ccc(-c3cc4c(N5CCN(C(=O)NC(C)C)CC5)ccnn4c3)nc2)CCCN(C(C)C)C1 [Compound 687] | < 0.01 | < 0.1 |
| CCOC(=O)N1CCN(c2ccnn3cc(-c4ccc([C@@]5(C)CN(C(C)C)CCN5)cc4)cc23)CC1 [Compound 597] | < 0.01 | < 0.1 |
| CCNC(=O)N1CCN(c2ccnn3cc(-c4ccc(C5CCN(C(C)C)CC5)nn4)cc23)CC1 [Compound 548] | < 0.01 | > 0.5 |
| CCOC1(c2ccc(-c3cc4c(N5CCN(C(=O)NC(C)C)CC5)ccnn4c3)cc2)CCN(C2COC2)CC1 [Compound 856] | < 0.01 | < 0.1 |
| CC(C)N1CCC(C#N)(c2ccc(-c3cc4c(N5CCN(C(=O)C6CC6)CC5)ccnn4c3)cc2)CC1 [Compound 615] | < 0.01 | < 0.1 |
| COC1(c2ccc(-c3cc4c(N5CCN(C(=O)OC6COC6)CC5)ccnn4c3)cc2)CCN([C@H](C)COC(F)F)CC1 [Compound 897] | < 0.01 | < 0.1 |
| CCNC(=O)N1CCN(c2ccnn3cc(-c4ccc([C@@H]5CCN(C(C)C)C5)cn4)cc23)CC1 [Compound 495] | < 0.01 | < 0.1 |
